For series [1] the following is noted: cited from earlier work. The protocol: We carried out a comparative study of blood flow imaging in mice using ICG-Cys (ICG-maleimide conjugated with a Cys residue) and pHLIP ICG (2.5 nmol of each). […] The most widely used is the near-infrared emitting ICG, first approved for angiography and subsequently used in ophthalmology and elsewhere for imaging blood vessels[36]–[41]. […] If administered intraperitoneally, ICG is found in the nearest lymph nodes within 15 min, and in the regional lymph nodes within 1–2 h[44],[45]. The IV dose of ICG varies from 0.5 to 2.0 ...

Series [2] can be described thus: Peripheral blood micronucleus test in rats (GLP). It counts as in vivo, Sprague Dawley rats. To be noted: male rats, 10 mg/kg oral gavage twice, 24 hours apart. The protocol:
The objective of this GLP study performed at CRL was to determine the potential genotoxicity of pHLIP ICG when given by i.v. bolus injection to rats using the peripheral blood micronucleus test.
In order to determine the maximum tolerated dose, a dose-range finding test was performed prior to the main test, where male and female rats (3 animals/sex) were administered a single dose of pHLIP ICG by i.v. injection. The doses evaluated were 14 mg/kg and 25 mg/kg using 5% EtOH in PBS, pH 7.4 as the vehicle.
Blood was collected for micronuclei evaluation at 45 hours post-dose (Groups 3 to 7), and 69 hours post-dose (Groups 3 and 7). The proportion of immature erythrocytes among total erythrocytes in the peripheral blood (%RETs) and the percentage of micronucleated reticulocytes (%MN-RETs) in the NC group were within the laboratory historical negative control range. […] The results from both NC and PC groups confirmed the validity of the assay.

Series [3] deals with T1, progesterone receptor B (Homo sapiens, UniProt P06401).
T1 construct: purchased Eurofins Panlabs, Inc
T1 sequence (P06401 1-933): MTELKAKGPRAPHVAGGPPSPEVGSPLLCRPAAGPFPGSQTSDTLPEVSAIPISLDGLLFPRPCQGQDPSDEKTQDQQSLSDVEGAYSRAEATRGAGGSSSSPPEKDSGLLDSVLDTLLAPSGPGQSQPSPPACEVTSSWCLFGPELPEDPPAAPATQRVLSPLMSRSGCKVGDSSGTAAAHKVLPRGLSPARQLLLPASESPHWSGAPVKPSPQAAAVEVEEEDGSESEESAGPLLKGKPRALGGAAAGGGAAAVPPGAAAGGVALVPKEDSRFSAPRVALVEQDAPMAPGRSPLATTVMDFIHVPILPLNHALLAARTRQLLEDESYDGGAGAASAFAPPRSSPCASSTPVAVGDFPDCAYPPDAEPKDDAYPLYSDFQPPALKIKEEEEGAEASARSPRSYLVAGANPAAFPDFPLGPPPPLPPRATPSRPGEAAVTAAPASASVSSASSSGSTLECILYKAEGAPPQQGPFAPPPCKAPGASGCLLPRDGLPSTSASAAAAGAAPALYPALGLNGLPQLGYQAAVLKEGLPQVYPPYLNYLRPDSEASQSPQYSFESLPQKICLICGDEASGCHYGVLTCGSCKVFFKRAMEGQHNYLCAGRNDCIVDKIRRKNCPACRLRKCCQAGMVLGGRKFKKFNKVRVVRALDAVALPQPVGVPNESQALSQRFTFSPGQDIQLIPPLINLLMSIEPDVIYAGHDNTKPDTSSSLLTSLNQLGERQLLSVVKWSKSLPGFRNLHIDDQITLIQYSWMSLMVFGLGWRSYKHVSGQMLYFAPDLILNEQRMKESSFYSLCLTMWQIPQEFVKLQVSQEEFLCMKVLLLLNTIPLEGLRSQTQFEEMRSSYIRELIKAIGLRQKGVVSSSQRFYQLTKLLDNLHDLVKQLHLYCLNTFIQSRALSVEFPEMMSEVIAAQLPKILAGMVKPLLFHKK
The series can be described thus: Progesterone receptor B radioligand binding assay. The protocol:
The pHLIP ICG enzyme binding assays were performed by Eurofins Panlabs, Inc. according to standard assay protocols. The following enzymes were used in the binding assay with 2 µM of pHLIP ICG : acetyl cholinesterase; peptidase (angiotensin converting enzyme); ATPase (Na^+/K^+, pig heart); CTSG peptidase (cathepsin G); cyclooxygenases COX-1 and COX-2; monoamine oxidases MAO-A and MAO-B; phosphodiesterases PDE3 and PDE4D2; protein tyrosine kinase (insulin receptor); protein tyrosine kinase (LCK); protein serine/threonine kinase (PKC, non-selective); adenosine A1 and A2A; adenosine transporter; adrenergic α1A, α1B, α1D, α2A, α2B, β1 and β2; norepinephrine transporter (NET); androgen (testosterone); angiotensin AT1; bradykinin B2; calcium channels L-type (benzothiazepine, dihydropyridine, phenylalkylamine); calcium channel N-type; cannabinoid CB1 and CB2; chemokine CCR1; cholecystokinin CCK1 (CCKA) and CCK2 (CCKB); dopamine D1, D2L and D2S; dopamine transporter (DAT); endothelin ETA; estrogen ERα; GABA transporter; GABAAs (flunitrazepam, central; Ro-15-1788, hippocampus and chloride channel, TBOB); glucocorticoid; glutamate (AMPA, kainate, agonism NMDA, glycine NMDA, phencyclidine NMDA, polyamine NMDA, and mGlu5 metabotropic); glycine (strychnine-sensitive); histamine H1 and H2; chemokine CXCR2 (IL-8RB); cysteinyl leukotriene (CysLT1); melanocortin MC1 and MC4; muscarinic M1, M2, M3, and M4; tachykinin NK1; neuropeptide Y Y1; nicotinic acetylcholine α1 (bungarotoxin) and α3β4; opiate δ1 (OP1, DOP), κ (OP2, KOP), and μ (OP3, MOP); platelet activating factor (PAF); potassium channels (KATP and hERG); PPARγ; serotonin (5-hydroxytryptamine) 5-HT1A, 5-HT1B, 5-HT2A, 5-HT2B, 5-HT2C, and 5-HT3; serotonin transporter (SERT); sodium channel (site 2); vasopressin V1A; progesterone (PR-B). The most significant inhibitory effect of pHLIP ICG was observed on progesterone B and was followed by an additional study to identify IC50 values, which were determined by a non-linear least square regression analysis using MathIQTM (ID Business Solutions Ltd., UK). The Ki values were calculated by the equation from Cheng and Prusoff [Cheng, Y., Prusoff, W.H., Biochem. Pharmacol. 22:3099-3108, 1973] using the observed IC50 of pHLIP ICG , the concentration of radioligand employed in the assay, and the historical values for the KD of the ligand (Eurofins Panlabs data). The Hill coefficient (nH), defining the slope of the competitive binding curve, was calculated using MathIQTM. The IC50, Ki, and nH values were established for pHLIP ICG and compared to the known progesterone agonist, R-2050 (Figure S3).
Figure SI,3. […]

With `CC1(C)C(/C=C/C=C/C=C/C=C2\N(CCCCS(=O)(=O)O)c3ccc4ccccc4c3C2(C)C)=[N+](CCCCS(=O)(=O)[O-])c2ccc3ccccc3c21` [ICG, indocyanine green], in series [1] (administered intraperitoneally), the “Time to be found in the nearest lymph nodes” value is recorded as not above 15 min and the “Time to be found in the regional lymph nodes” value was 1 to 2 h. Moreover, the “Clearance from the blood” value in series [1] (as contrast agent for imaging blood flow, no reference given) is “within a few minutes”. Moreover, in series [1], the Half-life in blood is listed as 2.5 min. The “Time of appearance in the bile after injection” value in series [1] (cleared through the liver) was “about 8 min”. For the same compound, the Acute toxicity entry in series [1] (high dose of 5 mg/kg) is “no acute toxicity has been observed”.
Consider `O=P1(N(CCCl)CCCl)NCCCO1` (stereo not drawn) [PC, cyclophosphamide monohydrate, reference compound], for which, in series [2], the “Micronuclei, positive control” value was “statistically significant increase in micronuclei”.
For the compound `CCC(=O)[C@@]1(C)CC[C@H]2[C@@H]3CCC4=CC(=O)CCC4=C3CC[C@@]21C` [R-2050, reference compound], the Ki in series [3] (Cheng-Prusoff from IC50, reference agonist, read-out: Ki progesterone receptor B) is 0.26 nM. Moreover, the IC50 in series [3] (radioligand binding, 20 hrs, reference agonist, read-out: IC50 progesterone receptor B) was found to be 0.33 nM.

As a reminder, the Ki is the equilibrium dissociation constant of an inhibitor or competing ligand from its target. In general, IC50 refers to the concentration needed to halve the response being measured.
